From publication PMC9127186, “Molecular Basis Underlying Hepatobiliary and Renal Excretion of Phenolic Acids of Salvia miltiorrhiza Roots (Danshen)” (Frontiers in Pharmacology, 2022)

Columns and labels:
[1] = molecular target: T1, human OATP2B1 (Homo sapiens, UniProt O94956); details: 10 min, 100 μM
T1 sequence (O94956 1-709): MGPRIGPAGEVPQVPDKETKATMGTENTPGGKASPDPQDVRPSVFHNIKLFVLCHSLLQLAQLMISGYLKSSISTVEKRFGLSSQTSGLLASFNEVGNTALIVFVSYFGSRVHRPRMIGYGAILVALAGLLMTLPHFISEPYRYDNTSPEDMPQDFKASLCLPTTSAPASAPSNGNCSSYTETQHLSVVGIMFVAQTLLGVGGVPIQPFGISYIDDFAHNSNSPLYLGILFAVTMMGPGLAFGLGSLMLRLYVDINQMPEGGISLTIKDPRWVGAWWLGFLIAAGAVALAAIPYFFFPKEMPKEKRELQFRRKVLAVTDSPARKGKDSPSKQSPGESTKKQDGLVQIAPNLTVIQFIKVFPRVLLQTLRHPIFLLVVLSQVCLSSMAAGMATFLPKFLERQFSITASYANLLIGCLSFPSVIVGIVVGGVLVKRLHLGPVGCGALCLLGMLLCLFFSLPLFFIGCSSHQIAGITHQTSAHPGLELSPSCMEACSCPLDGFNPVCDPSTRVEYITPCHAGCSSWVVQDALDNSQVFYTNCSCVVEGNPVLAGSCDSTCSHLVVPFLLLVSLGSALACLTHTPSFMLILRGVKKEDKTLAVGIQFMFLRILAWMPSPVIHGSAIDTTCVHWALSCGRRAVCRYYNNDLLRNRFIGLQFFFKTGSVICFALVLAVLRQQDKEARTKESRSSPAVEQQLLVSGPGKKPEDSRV

[2] = molecular target: T2, human PEPT2 (Homo sapiens, UniProt Q16348); details: 10 min, 100 μM, pH 6
T2 sequence (Q16348 1-729): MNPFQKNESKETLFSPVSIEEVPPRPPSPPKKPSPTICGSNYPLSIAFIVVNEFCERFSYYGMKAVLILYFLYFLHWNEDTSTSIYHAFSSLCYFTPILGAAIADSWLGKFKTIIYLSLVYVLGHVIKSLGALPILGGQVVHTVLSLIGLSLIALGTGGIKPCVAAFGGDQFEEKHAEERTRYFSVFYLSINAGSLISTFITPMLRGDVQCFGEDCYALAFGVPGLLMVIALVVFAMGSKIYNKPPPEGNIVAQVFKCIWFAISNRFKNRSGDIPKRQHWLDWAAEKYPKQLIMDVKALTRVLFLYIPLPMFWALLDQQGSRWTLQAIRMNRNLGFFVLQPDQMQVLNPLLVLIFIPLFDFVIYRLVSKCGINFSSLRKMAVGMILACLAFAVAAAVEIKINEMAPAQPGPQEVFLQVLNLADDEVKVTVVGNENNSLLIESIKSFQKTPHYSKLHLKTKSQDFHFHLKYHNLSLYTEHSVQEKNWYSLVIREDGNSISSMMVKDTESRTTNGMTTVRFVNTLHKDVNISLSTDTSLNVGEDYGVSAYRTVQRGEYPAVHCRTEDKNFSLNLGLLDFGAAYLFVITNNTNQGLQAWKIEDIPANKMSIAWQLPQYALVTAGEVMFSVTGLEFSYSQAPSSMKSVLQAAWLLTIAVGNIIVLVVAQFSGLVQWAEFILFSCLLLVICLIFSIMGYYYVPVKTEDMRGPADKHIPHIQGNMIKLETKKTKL

[3] = molecular target: T3, human PEPT1 (Homo sapiens, UniProt P46059); details: 10 min, 100 μM, pH 6
T3 sequence (P46059 1-708): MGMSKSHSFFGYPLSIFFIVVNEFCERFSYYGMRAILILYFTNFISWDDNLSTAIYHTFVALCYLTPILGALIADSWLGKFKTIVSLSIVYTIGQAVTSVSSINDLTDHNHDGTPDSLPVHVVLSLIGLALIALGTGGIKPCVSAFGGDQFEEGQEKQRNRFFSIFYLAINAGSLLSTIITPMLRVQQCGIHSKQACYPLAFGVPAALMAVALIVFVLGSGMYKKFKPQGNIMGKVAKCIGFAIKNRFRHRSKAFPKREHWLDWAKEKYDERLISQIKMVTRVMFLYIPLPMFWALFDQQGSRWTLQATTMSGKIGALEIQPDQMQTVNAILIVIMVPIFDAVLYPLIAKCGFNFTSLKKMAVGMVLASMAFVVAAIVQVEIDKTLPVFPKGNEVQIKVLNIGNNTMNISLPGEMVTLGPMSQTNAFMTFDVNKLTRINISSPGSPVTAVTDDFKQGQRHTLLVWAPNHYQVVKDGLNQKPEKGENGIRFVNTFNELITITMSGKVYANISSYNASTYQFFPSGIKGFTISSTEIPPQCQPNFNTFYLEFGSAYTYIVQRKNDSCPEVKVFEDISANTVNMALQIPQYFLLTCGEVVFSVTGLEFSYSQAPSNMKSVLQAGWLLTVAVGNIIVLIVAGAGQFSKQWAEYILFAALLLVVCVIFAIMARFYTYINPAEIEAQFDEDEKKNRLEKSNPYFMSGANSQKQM

[4] = molecular target: T4, human NTCP (Homo sapiens, UniProt Q14973); details: 10 min, 100 μM
T4 sequence (Q14973 1-349): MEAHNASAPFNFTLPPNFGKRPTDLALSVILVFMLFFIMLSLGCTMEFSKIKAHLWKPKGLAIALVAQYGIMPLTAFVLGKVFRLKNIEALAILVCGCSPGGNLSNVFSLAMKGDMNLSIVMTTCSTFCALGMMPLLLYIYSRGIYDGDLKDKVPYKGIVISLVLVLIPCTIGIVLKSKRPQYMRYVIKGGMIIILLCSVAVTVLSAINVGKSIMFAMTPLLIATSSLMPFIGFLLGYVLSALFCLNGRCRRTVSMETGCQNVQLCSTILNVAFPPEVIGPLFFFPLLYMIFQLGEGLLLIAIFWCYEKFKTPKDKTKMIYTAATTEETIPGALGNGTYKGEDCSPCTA

Row | Structure (SMILES) | TransportTC/TransportMC ratio (net transport ratio) [1] | TransportTC/TransportMC ratio (net transport ratio) [2] | TransportTC/TransportMC ratio (net transport ratio) [3] | TransportTC/TransportMC ratio (net transport ratio) [4]
1 | O=C(/C=C/c1ccc(O)c(O)c1)O[C@H](Cc1ccc(O)c(O)c1)C(=O)O [Rosmarinic acid, rosmarinic acid] | 1.69 ± 0.71 | 1.12 ± 0.22 | 1.42 ± 0.53 | 2.76 ± 0.36
2 | O=C(/C=C/c1ccc(O)c(O)c1/C=C/c1ccc(O)c(O)c1)O[C@H](Cc1ccc(O)c(O)c1)C(=O)O [Salvianolic acid A, salvianolic acid A] | 2.45 ± 0.34 | 1.14 ± 0.31 | 1.45 ± 0.27 | 0.93 ± 0.11
